The record followed here is patent US20060025430A1, “Novel irreversible inhibitors of epidermal growth factor receptor tyrosine kinase and uses thereof for therapy and diagnosis” (priority 2003, published 2006).

The structures appear in SMILES notation.

Holding throughout (type): cell-based
One test addresses PDGFR (Homo sapiens, UniProt P09619). Description: Selective-inhibition assay in […] cells (receptor phosphotyrosine, Western blot). The following applies: […] cells expressing PDGFR, 1 hour incubation, PDGFββ stimulation. The method, then:
(§1) NIH3T3 cells transformed with either the EGFR (DHER14 cells), with the HER1-HER2 chimera (CSH12 cells) or with the PDGFR (NIH/PDGFR cells), decribed by Lee et al.; 1989, Honegger et al., 1988; and Shawver et al. 1997, and A431 human epidermoid vulval carcinoma cells were grown in Dulbecco's modified Eagle's medium (DMEM) (Biological industries, Kibbuts Beit Haemek, Israel) supplemented with 10% fetal calf serum and antibiotics (penicillin […], streptomycin 100 mg/liter) at 37° C. in 5% CO2.
(§2) Selective-inhibition assay: CSH12, DHER14 and […] cells, expressing either the HER1-HER2 chimera, EGFR or PDGFR, respectively, were used for the determination of inhibitory selectivity. Cells (7.5×10^4) were grown in 6-well plates (35 mm diameter, Nalge Nunc) for 24 hours and then incubated in 0.25% FCS-containing medium for an additional 24 hours to about 90% confluence. Duplicate sets of cells were treated with the tested compounds at varying concentrations for 1 hour. The final concentration of the vehicle in the medium was 0.05% DMSO, 0.1% EtOH. After removal of the inhibitor from the medium, PBS wash (×2) and addition of 0.25% serum-containing medium to the wells, the cells were stimulated with either 20 ng/mL human EGF for 5 minutes (CSH12 and DHER14 cells) or 50 ng/ml human PDGFββ for 10 minutes ([…] cells) at 37° C. […]
A general note: Immunoblotting shows a protein as a band on a membrane.

For the next test, the target named is T1, HER1-HER2 chimera (Homo sapiens, UniProt P04626).
T1 construct: HER2 cytoplasmic domain generates normal mitogenic and transforming signals in a chimeric receptor; expressed in transfected cells; host or cells: NIH3T3 (CSH12 cells); the other entry of the earlier key: EGFR (P00533, Epidermal growth factor receptor)
T1 sequence (P04626 with tags, fused parts or gaps): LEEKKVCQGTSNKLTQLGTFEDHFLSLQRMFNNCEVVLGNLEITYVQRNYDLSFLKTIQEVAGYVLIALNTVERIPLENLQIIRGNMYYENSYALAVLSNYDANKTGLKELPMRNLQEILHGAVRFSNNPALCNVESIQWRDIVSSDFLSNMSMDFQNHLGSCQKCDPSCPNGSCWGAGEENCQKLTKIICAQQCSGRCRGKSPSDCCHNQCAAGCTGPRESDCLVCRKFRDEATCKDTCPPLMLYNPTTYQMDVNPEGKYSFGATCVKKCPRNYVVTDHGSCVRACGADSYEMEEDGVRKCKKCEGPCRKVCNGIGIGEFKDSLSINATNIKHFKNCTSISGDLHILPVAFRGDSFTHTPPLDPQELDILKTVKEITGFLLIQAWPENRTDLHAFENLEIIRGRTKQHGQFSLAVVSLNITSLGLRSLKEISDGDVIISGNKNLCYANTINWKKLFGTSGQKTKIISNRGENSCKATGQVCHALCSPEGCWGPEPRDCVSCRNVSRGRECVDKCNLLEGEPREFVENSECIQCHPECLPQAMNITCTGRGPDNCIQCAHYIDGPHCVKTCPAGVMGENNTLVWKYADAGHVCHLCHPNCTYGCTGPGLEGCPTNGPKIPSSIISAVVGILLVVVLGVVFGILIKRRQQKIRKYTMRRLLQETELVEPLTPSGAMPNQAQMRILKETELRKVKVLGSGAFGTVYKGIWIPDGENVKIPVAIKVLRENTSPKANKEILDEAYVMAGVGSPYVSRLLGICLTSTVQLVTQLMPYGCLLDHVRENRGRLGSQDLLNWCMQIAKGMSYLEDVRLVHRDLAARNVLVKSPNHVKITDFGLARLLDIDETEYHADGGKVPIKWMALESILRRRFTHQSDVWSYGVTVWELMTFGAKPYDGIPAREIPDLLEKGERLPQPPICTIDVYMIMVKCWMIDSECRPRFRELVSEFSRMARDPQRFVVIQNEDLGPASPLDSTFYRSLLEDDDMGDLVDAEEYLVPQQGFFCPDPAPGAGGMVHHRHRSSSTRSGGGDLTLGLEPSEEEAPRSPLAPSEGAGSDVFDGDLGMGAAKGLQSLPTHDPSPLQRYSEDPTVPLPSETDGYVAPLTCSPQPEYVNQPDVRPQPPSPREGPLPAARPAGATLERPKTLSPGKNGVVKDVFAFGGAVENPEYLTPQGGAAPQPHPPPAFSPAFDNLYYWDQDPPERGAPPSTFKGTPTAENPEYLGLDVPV
Description: Selective-inhibition assay in CSH12 cells (receptor phosphotyrosine, Western blot). To be noted: CSH12 cells expressing HER1-HER2 chimera, 1 hour incubation, EGF stimulation. The source says:
Identical protein amounts from each lysate sample were loaded onto polyacrylamide gel (6% or 10%), separated by electrophoresis (Hoefer Pharmacia Biotech Inc., San Francisco, USA) and transferred to nitrocellulose membrane (power supply: EPS 500/400, Amersham Pharmacia Biotech; nitrocellulose extra blotting membranes: Sartorius AG, Goettingen, Germany). A standard high molecular weight solution was loaded as a reference. For visualization of molecular weight bands, the membrane was immersed in Ponceau reagent (0.05% Ponceau, 5% acetic acid) for a few minutes, and then washed twice with TTN (10 mM Tris pH 7.4, 0.2% TWEEN 20, 170 mM NaCl) and once with water. The membrane was blocked overnight in TTN containing 5% milk (1% fat) (blocking TTN) and incubated for 90 minutes with PY20 antiphosphotyrosine antibody (Santa Cruz Biotechnology Inc., Santa Cruz, USA) diluted 1:2,000 in blocking TTN. The membrane was then washed with TTN (3×5 minutes), incubated for 90 minutes with a horseradish peroxidase-conjugated secondary antibody (Goat anti-mouse IgG H+L, Jackson ImResearch Laboratories, Inc., diluted 1:10,000 in blocking TTN), and finally washed again with TTN (3×5 minutes).

A further test addresses T2, EGFR (Homo sapiens, UniProt P00533).
T2 construct: expressed in transfected cells; host or cells: NIH3T3 (DHER14 cells)
As to the kind of experiment: Selective-inhibition assay in DHER14 cells (receptor phosphotyrosine, Western blot). To be noted: DHER14 cells expressing EGFR, 1 hour incubation, EGF stimulation. Here is the method:
as §1, §2

Sequence of PDGFR (P09619 whole entry): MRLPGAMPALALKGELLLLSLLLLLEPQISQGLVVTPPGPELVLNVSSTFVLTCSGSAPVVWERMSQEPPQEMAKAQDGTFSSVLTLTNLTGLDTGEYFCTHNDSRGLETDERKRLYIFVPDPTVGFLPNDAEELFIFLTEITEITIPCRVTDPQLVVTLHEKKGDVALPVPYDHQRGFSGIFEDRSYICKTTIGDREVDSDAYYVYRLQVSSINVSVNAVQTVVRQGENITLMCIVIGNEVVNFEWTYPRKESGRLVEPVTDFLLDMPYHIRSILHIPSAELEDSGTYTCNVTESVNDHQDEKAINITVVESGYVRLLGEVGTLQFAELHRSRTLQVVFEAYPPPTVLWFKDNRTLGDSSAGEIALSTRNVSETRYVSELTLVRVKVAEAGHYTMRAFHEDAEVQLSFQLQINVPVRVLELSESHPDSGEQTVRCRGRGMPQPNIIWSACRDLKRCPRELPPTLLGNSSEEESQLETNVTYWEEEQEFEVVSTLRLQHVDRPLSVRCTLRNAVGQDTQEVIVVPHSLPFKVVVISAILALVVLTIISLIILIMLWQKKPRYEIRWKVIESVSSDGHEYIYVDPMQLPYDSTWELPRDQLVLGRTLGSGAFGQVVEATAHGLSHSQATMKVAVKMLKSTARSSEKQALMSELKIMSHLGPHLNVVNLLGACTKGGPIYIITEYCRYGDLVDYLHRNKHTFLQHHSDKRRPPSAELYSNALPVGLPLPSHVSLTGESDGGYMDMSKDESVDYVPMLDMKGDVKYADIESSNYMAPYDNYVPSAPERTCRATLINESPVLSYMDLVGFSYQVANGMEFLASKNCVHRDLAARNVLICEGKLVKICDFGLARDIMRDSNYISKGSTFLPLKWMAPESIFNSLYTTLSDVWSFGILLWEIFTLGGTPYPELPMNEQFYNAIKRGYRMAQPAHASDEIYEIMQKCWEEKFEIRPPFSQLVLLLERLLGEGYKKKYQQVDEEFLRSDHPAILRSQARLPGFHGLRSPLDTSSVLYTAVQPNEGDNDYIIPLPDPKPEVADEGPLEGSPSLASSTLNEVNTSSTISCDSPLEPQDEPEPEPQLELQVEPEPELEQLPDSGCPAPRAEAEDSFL
T2 sequence (P00533 25-1210): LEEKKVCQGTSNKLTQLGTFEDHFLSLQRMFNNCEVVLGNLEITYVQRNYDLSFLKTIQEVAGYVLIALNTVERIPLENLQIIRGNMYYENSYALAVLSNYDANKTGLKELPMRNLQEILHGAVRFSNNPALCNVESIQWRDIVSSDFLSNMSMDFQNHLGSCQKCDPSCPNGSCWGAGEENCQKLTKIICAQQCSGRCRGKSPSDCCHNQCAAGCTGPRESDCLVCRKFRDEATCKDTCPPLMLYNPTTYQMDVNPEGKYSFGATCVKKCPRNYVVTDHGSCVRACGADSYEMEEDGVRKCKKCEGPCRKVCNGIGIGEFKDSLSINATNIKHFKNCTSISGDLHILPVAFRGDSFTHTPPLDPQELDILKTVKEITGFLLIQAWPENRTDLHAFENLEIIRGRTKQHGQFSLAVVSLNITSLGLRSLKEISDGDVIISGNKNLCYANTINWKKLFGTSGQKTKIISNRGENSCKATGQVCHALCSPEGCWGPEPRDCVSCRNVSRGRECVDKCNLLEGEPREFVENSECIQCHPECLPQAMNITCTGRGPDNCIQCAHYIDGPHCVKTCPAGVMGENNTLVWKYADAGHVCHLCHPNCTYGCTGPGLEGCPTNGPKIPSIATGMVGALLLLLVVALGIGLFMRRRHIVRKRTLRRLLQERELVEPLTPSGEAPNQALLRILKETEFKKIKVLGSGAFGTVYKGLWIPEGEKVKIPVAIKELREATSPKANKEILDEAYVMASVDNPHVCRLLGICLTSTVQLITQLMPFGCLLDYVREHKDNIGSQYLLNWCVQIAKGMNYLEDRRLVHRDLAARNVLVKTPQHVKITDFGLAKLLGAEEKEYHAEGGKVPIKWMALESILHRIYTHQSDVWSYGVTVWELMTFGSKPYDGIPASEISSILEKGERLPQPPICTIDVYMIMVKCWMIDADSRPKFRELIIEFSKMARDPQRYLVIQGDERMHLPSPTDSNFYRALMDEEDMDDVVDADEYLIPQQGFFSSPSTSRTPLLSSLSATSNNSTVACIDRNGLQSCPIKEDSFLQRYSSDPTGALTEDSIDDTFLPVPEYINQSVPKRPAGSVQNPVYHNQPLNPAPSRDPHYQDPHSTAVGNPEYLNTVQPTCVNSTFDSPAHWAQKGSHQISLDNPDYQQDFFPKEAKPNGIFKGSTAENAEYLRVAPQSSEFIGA

Regarding `O=C(CCl)Nc1ccc2ncnc(Nc3cc(Cl)c(Cl)cc3F)c2c1` [Compound 5, N-{4-[(4,5-Dichloro-2-fluoro-phenyl)amino]-quinazolin-6-yl}-2-chloroacetamide], the results for the IC50 against PDGFR, against HER1-HER2 chimera and against EGFR were greater than 1000 nM, 25 to 50 nM and 5 to 15 nM, respectively.

One may read the IC50 as the point on the concentration scale where inhibition reaches its midpoint. Low values mean higher potency, high ones lower potency.
